{"source": "paper PMC5201116", "about": "“Bioactive Flavonoids and Catechols as Hif1 and Nrf2 Protein Stabilizers - Implications for Parkinson’s Disease” (Aging and Disease, 2016)", "key": {"[1]": {"system": "HIF1 ODD-luc reporter (SH-SY5Y cell line)", "test": "HIF1 ODD-luc reporter assay", "type": "cell-based", "conditions": "Homo sapiens, SH-SY5Y", "description": "SH-SY5Y cell lines stably expressing HIF1 ODD-luc or Neh2-luc reporters were grown in the DMEM/F12 supplemented with GlutaMAX (Thermo Fisher Scientific) containing 10% FBS, 100 U/ml penicillin, and 100 μg/ml streptomycin and plated into 384-well white flat-bottom plates at 7,000 cell/well in 30 µl serum and incubated overnight at 37°C, 5% CO2. The next day compounds were added to a final concentration of 10 µM and the plates were incubated for 3 hours at 37°C. Reporter activation after 3 h incubation with the studied compound was compared to that for ciclopirox (HIF1 ODD-luc reporter) or TBHQ (Neh2-luc reporter), taken as 100%. Luciferase reporter activity was measured with a SteadyGlo reagent from Promega providing stable reading for 1 h.\nCells were plated at the density of 25,000 cell per well using a WellMate multichannel dispenser from Matrix (Thermo Fisher Scientific, Waltham, MA) and grown overnight on DMEM/F12+GlutaMAX (100 µl per well). Then an inhibitor was added, and the plates were incubated for a fixed time interval; the medium was removed, cells lysed, and luciferase activity was measured on a SpectraMax M5e platereader (Molecular Devices, Sunnyvale, CA) with BrightGlo™ reagent (Promega, Madison, WI). The reporter activation was normalized to the background luminescence. The effect of 0.5 mM N-acetylcysteine (NAC) was studied by simultaneous addition of 5 µL of 10 mM stock of NAC in water and 2 µL of 50x stock solutions of a flavonoid in DMSO."}, "[2]": {"system": "C57Bl6 mice, MPTP model of Parkinson's disease", "test": "Stereological counts of Nissl- and TH-positive neurons in SNpc, MPTP model", "type": "in vivo, mouse", "conditions": "NDGA 100mg/kg/day, Fig. 7", "description": "Acute MPTP-intoxication paradigm was used to test the neuroprotective effects of NDGA using male C57Bl6 mice. In this protocol, 10-week-old C57Bl6 mice (n = 8-10 per group) were divided into four different groups consisting of 1) a control group treated with saline alone; 2) a group treated with MPTP alone; 3) a group treated with NDGA alone and; 4) group treated with NDGA in combination with MPTP. NDGA was dissolved in 1:4 ethanol:neobee oil (a derivative of coconut oil). MPTP 10 mg/kg free base was administered intraperitoneally three times a day every two hours. Animals with NDGA in combination with MPTP were administered NDGA by oral gavage with 50 and 100mg/kg/day body weight of the drug in 100 microliter volume once a day for 4 days before MPTP and once a day for 3 days after MPTP. On the day of MPTP NDGA was administered to mice 2 hours before the initiation of MPTP. Animals belonging to MPTP and control groups received the vehicle (ethanol:neobee oil, 1:4) whereas the drug alone group received respective doses of NDGA at the same frequency. All animals were sacrificed on the 7th day after MPTP. […]"}, "[3]": {"system": "HRE-luciferase reporter (HT22 hippocampal cell line)", "test": "HRE-luc reporter assay", "type": "cell-based", "conditions": "Mus musculus, HT-22, 3 h; at 10 µM; read-out: HRE-luc fold activation", "from_the_text": "A promoter-reporter construct that contained 68 bp of a known hypoxia and HIF-1 regulated gene, enolase, containing a wild type hypoxia response element (HRE, 5’-RCTGT-3’), is a widely used approach for screening for HIF activators of different mechanism of action. A cell-based assay with HRE-luciferase reporter system is based on transfected immortalized hippocampal cell line (HT22) and allows screening for a broad spectrum of compounds that include: activators of HIF transcription; activators of HIF binding to HRE; and effectors of HIF protein stability (PHD inhibitors, pVHL & proteasome inhibitors). The assay was performed the same way as for HIF ODD-luc reporter except the cells were plated at the density of 10,000 cell per well and incubated overnight."}, "[4]": {"system": "primary neuronal cultures treated with 5 mM HCA", "test": "Glutathione depletion (HCA) model, MTT viability", "type": "cell-based, rat", "conditions": "glutathione depletion model, Fig. 5", "description": "Primary neuronal cultures were prepared from the forebrains of Sprague-Dawley rat embryos (E17) and plated on 96 well plates at a 10^6 cells/ml density. After 24 hours, cells were rinsed with warm PBS and then placed in minimum Essential Medium (MEM; Life Technologies, Grand Island, NY) containing 5 mM HCA in the presence of a compound of interest at varied concentrations. Cells were incubated for 24 h or longer to see 90% cell death in HCA treated controls. Viability was assessed by the MTT (4,5-dimethylthiazol-2-yl)-2,5-diphenyltetrazolium bromide) assay."}, "[5]": {"system": "HO-1 mRNA in brain", "test": "Brain HO-1 mRNA levels after NDGA", "type": "in vivo, mouse", "conditions": "6 hours after last dose, data not shown", "description": "We used an acute paradigm of MPTP administration (10 mg MPTP/kg X 3, every two hours), known to cause about a 50% loss of striatal dopamine and its metabolites DOPAC and HVA and significant loss of tyrosine hydroxylase (TH) immunopositive neurons in the substantia nigra pars compacta (SNpc) on the 7th day. […] The doses that were used to determine the efficacy of NDGA against MPTP were determined by evaluation of brain HO-1 levels. Both 50 and 100 mg/kg administered twice a day induced a dose dependent increase in HO-1 mRNA levels at 6 hours after last dose of NDGA."}, "[6]": {"test": "Iron binding constant, calcein displacement assay", "type": "physicochemical", "conditions": "calcein displacement", "from_the_text": "Calcein displacement assay in the presence of varied concentrations of flavonoids and catechols has been used. Calcein release from its complex with iron was monitored by fluorescence as described in [26]."}}}
{"compound": "CC(Cc1ccc(O)c(O)c1)C(C)Cc1ccc(O)c(O)c1", "note": "(centres unmarked) [compound 28, 4,4'-(2,3-dimethylbutane-1,4-diyl)dibenzene-1,2-diol]", "values": [{"measurement": "EC50", "setting": "[1]", "result": "~2000", "unit": "nM"}, {"measurement": "fold induction at 10 µM", "setting": "[1]; 3 h, at 10 µM, 3 h incubation, read-out: ODD-luc fold activation", "result": 2}, {"measurement": "MPTP-induced loss of total (Nissl-positive) and TH-immunopositive neurons in SNpc", "setting": "[2]", "result": "significant attenuation"}, {"measurement": "fold induction at 10 µM", "setting": "[3]", "result": "2 ± 0.2"}, {"measurement": "concentration at which neuroprotection begins", "setting": "[4]", "result": 2.5, "unit": "µM"}, {"measurement": "increase in HO-1 mRNA levels", "setting": "[5]; 50 mg/kg twice a day", "result": 1.2, "unit": "fold"}, {"measurement": "increase in HO-1 mRNA levels", "setting": "[5]; 100 mg/kg twice a day", "result": 6, "unit": "fold"}, {"measurement": "Iron complex Diss. Const", "setting": "[6]", "result": "2.5 ± 0.3", "unit": "µM"}]}
